System: MDA-MB-231 cells
Assay: RPPA (reverse phase protein array)
Type: cell-based, human
Method: RPPA analysis was performed by MD Anderson Cancer Center RPPA core facility.
Examination of the Molecular Signaling Events) and/or Downstream Pathways Responsible for the Migration and Invasion Effects Observed by Exemplary Compound Treatment. To pinpoint these observations to a molecular signaling event or specific downstream pathway, reverse phase protein array (RPPA) analysis was performed (Table 4).

Cc1ncsc1-c1ccc(CNC(=O)[C@@H]2C[C@@H](O)CN2C(=O)[C@@H](NC(=O)CCOCCOc2ccc(Nc3ncc(C(F)(F)F)c(NCc4cccc(N(C)S(C)(=O)=O)c4)n3)cc2)C(C)(C)C)cc1 [Compound 102, (2S,4R)-1-((S)-3,3-dimethyl-2-(3-(2-(4-((4-((3-(N-methylmethylsulfonamido)benzyl)amino)-5-(trifluoromethyl)pyrimidin-2-yl)amino)phenoxy)ethoxy)propanamido)butanoyl)-4-hydroxy-N-(4-(4-methylthiazol-5-yl)benzyl)pyrrolidine-2-carboxamide]
rel. Protein level, cdc25C (500nM): 99.5% | rel. Protein level, eEF2 (500nM): 98.9% | rel. Protein level, eEF2K (500nM): 110.8% | rel. Protein level, eIF4E (500nM): 102.9% | rel. Protein level, eIF4E_pS209 (500nM): 95.8% | rel. Protein level, eIF4G (500nM): 96.7% | rel. Protein level, mTOR (500nM): 98.9% | rel. Protein level, mTOR_pS2448 (500nM): 92.3% | rel. Protein level, p21 (500nM): 98.7% | rel. Protein level, p27-Kip-1 (500nM): 101.1% | rel. Protein level, p27_pT198 (500nM): 100.1% | rel. Protein level, p38-MAPK (500nM): 93.4% | rel. Protein level, p38_pT180_Y182 (500nM): 93.4% | rel. Protein level, p44-42-MAPK (500nM): 112.7% | rel. Protein level, p53 (500nM): 113.6% | rel. Protein level, p70-S6K1 (500nM): 109.6% | rel. Protein level, p70-S6K_pT389 (500nM): 92.3% | rel. Protein level, p90RSK_pT573 (500nM): 98.5% | Fak level by RPPA (in words) (10% FBS, 8 hours): Fak degradation | p-Fak level by RPPA (in words) (10% FBS, 8 hours): reduced levels of p-Fak | rel. Protein level [%], SCD (antibody SCD, 500nM, n = 2): 94.3% | rel. Protein level [%], SDHA (antibody SDHA, 500nM, n = 2): 102.0% | rel. Protein level [%], SF2 (antibody SF2, 500nM, n = 2): 105.3% | rel. Protein level [%], SHP-2_pY542 (antibody SHP-2_pY542, 500nM, n = 2): 96.4% | rel. Protein level [%], SLC1A5 (antibody SLC1A5, 500nM, n = 2): 100.8% | rel. Protein level [%], SOD1- (antibody SOD1-, 500nM, n = 2): 101.4% | rel. Protein level [%], SOD2 (antibody SOD2, 500nM, n = 2): 103.5% | rel. Protein level [%], STING (antibody STING, 500nM, n = 2): 136.3% | rel. Protein level [%], Shc_pY317 (antibody Shc_pY317, 500nM, n = 2): 100.3% | rel. Protein level [%], Slfn11 (antibody Slfn11, 500nM, n = 2): 96.5% | rel. Protein level [%], Smac (antibody Smac, 500nM, n = 2): 100.9% | rel. Protein level [%], Smad1 (antibody Smad1, 500nM, n = 2): 96.6% | rel. Protein level [%], Smad3 (antibody Smad3, 500nM, n = 2): 110.8% | rel. Protein level [%], Smad4 (antibody Smad4, 500nM, n = 2): 100.2% | rel. Protein level [%], Snail (antibody Snail, 500nM, n = 2): 107.4% | rel. Protein level [%], Sox2 (antibody Sox2, 500nM, n = 2): 105.3% | rel. Protein level [%], Src (antibody Src, 500nM, n = 2): 103.5% | rel. Protein level [%], Src_pY419 (antibody Src_pY419, 500nM, n = 2): 98.9% | rel. Protein level [%], Src_pY527 (antibody Src_pY527, 500nM, n = 2): 91.0% | rel. Protein level [%], Stat3 (antibody Stat3, 500nM, n = 2): 99.2% | rel. Protein level [%], Stat3_pY705 (antibody Stat3_pY705, 500nM, n = 2): 119.9% | rel. Protein level [%], Stat5a (antibody Stat5a, 500nM, n = 2): 111.4% | rel. Protein level [%], Stathmin-1 (antibody Stathmin-1, 500nM, n = 2): 101.8% | rel. Protein level [%], Syk (antibody Syk, 500nM, n = 2): 92.8% | rel. Protein level [%], TAZ (antibody TAZ, 500nM, n = 2): 89.0% | rel. Protein level [%], TFAM (antibody TFAM, 500nM, n = 2): 107.8% | rel. Protein level [%], TFRC (antibody TFRC, 500nM, n = 2): 99.8% | rel. Protein level [%], TIGAR (antibody TIGAR, 500nM, n = 2): 96.8% | rel. Protein level [%], TRIM25 (antibody TRIM25, 500nM, n = 2): 108.0% | rel. Protein level [%], TSC1 (antibody TSC1, 500nM, n = 2): 106.5% | rel. Protein level [%], TTF1 (antibody TTF1, 500nM, n = 2): 102.7% | rel. Protein level [%], TUFM (antibody TUFM, 500nM, n = 2): 96.9% | rel. Protein level [%], TWIST (antibody TWIST, 500nM, n = 2): 96.9% | rel. Protein level [%], Tau (antibody Tau, 500nM, n = 2): 101.7% | rel. Protein level [%], Transglutaminase (antibody Transglutaminase, 500nM, n = 2): 107.8% | rel. Protein level [%], Tuberin (antibody Tuberin, 500nM, n = 2): 106.3% | rel. Protein level [%], Tuberin_pT1462 (antibody Tuberin_pT1462, 500nM, n = 2): 93.5% | rel. Protein level [%], Tyro3 (antibody Tyro3, 500nM, n = 2): 98.8% | rel. Protein level [%], U-Histone-H2B (antibody U-Histone-H2B, 500nM, n = 2): 108.7% | rel. Protein level [%], UBAC1 (antibody UBAC1, 500nM, n = 2): 100.4% | rel. Protein level [%], UGT1A (antibody UGT1A, 500nM, n = 2): 94.3% | rel. Protein level [%], ULK1_pS757 (antibody ULK1_pS757, 500nM, n = 2): 100.9% | rel. Protein level [%], VASP (antibody VASP, 500nM, n = 2): 108.6% | rel. Protein level [%], VEGFR-2 (antibody VEGFR-2, 500nM, n = 2): 93.7% | rel. Protein level [%], VHL-EPPK1 (antibody VHL-EPPK1, 500nM, n = 2): 90.7% | rel. Protein level [%], WIPI1 (antibody WIPI1, 500nM, n = 2): 112.5% | rel. Protein level [%], WIPI2 (antibody WIPI2, 500nM, n = 2): 108.8% | rel. Protein level [%], Wee1 (antibody Wee1, 500nM, n = 2): 92.3% | rel. Protein level [%], Wee1_pS642 (antibody Wee1_pS642, 500nM, n = 2): 94.7% | rel. Protein level [%], XBP-1 (antibody XBP-1, 500nM, n = 2): 92.8% | rel. Protein level [%], XPA (antibody XPA, 500nM, n = 2): 96.4% | rel. Protein level [%], XPF (antibody XPF, 500nM, n = 2): 109.0% | rel. Protein level [%], XRCC1 (antibody XRCC1, 500nM, n = 2): 104.0% | rel. Protein level [%], YAP (antibody YAP, 500nM, n = 2): 95.4% | rel. Protein level [%], YAP_pS127 (antibody YAP_pS127, 500nM, n = 2): 106.2% | rel. Protein level [%], YB1_pS102 (antibody YB1_pS102, 500nM, n = 2): 92.3% | rel. Protein level [%], ZAP-70 (antibody ZAP-70, 500nM, n = 2): 92.5%
